# Test system: BLM-induced lung fibrosis in C57BL/6J mice
# Experiment: Late BLM model, comparison and combination with Pirfenidone
# Assay type: in vivo, mouse
# Details: RP-832c 10 mg/kg QD; Pirfenidone 30 mg/kg Q3D; monotherapy, 21 days; n = 6
# Procedure: C57BL/6J mice were obtained from Envigo, Indianapolis, IN, USA. All animal studies were approved by the IACUC (Murigenics, Inc., Vallejo, CA, USA). After 3 days of acclimation, the mice were challenged with a single 2.5 U/kg body weight dose of bleomycin (BLM) intratracheally (IT), and a vehicle (normal saline) or RP-832c(QD) was administered subcutaneously for 21 days starting 3- and 14-days post-BLM-challenge. Body weights were measured daily, and lung weight was measured at the end of each study.
# At the end of the study, the mice were sacrificed using CO2 followed by cervical dislocation (according to IACUC guidelines), and the lungs were collected and fixed in 10% formalin. After 48 h of fixation, the lungs were processed into tissue sections. […] All slides were scanned using a Leica Aperio SC2 scanner and blindly evaluated by two independent pathologists. A total of 10 representative fields of 20× IHC images per tissue section were individually analyzed for the total number of cells/area using a confocal microscope (Olympus, New York, NY, USA). All quantitative data were normalized to appropriate control images.
# Pirfenidone and Nintedanib are the only two FDA-approved drugs for lung fibrosis; therefore, we tested any synergistic effects of RP-832c peptide with these drugs. […] Combination therapy was also evaluated (Figure 5A and Figure S5). […]
smiles,measurement,value
Cc1ccc(=O)n(-c2ccccc2)c1 [Pirfenidone],CD206 expression in lung (IHC),decreased CD206 expression
